Assay results published in ChEMBL document CHEMBL1151519, “Xanthene derived potent nonpeptidic inhibitors of recombinant human calpain I” (Bioorg Med Chem Lett, 1996).

How the values were obtained:
[1] = biological target: T1, Calpain-1 catalytic subunit (Homo sapiens, UniProt P07384); assay: (§1) Inhibitory activity of compound against recombinant human Calpain 1
T1 sequence (P07384 whole entry): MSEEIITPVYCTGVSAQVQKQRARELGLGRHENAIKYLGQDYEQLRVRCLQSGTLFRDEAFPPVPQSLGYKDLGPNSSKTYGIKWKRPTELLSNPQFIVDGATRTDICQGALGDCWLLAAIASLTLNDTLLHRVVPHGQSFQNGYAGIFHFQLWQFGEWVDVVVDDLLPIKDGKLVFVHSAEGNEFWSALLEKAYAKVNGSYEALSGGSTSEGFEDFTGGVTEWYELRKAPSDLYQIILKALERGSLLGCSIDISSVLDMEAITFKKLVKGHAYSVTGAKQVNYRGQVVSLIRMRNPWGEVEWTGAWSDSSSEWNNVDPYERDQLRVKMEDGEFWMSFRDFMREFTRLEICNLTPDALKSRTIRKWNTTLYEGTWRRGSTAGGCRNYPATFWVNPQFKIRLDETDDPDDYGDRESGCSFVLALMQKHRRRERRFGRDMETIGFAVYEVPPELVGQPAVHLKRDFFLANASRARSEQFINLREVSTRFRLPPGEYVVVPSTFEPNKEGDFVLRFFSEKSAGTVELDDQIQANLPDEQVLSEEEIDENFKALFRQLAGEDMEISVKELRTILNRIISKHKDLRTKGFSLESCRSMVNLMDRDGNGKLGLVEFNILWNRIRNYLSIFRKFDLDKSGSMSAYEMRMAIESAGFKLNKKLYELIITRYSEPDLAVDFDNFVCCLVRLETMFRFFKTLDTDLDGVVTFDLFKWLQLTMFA

[2] = biological target: T2, Calpain-1 catalytic subunit (Homo sapiens) (UniProt P07384); assay: as §1
T2 sequence (whole entry): T1 sequence (P07384 whole entry)

SMILES | IC50 [1] | K obs / 1 [2]
CC(C)C[C@H](CC(=O)C1c2ccccc2Oc2ccccc21)C(=O)N[C@H](C=O)CC(C)C | 25 nM | –
CCNC(=O)C(CC(C)C)NC(=O)[C@@H](CC(=O)C1c2ccccc2Oc2ccccc21)CC(C)C (stereo partly specified) | 130 nM | –
CCNC(=O)C(=O)C(CC)NC(=O)[C@H](CC(C)C)NC(=O)OCc1ccccc1 (stereo partly specified) | 240 nM | –
CC(C)C[C@H](CC(=O)CCCCc1ccccc1)C(=O)N[C@H](C=O)CC(C)C | 138 nM | –
CC(C)C[C@H](CC(=O)C(c1ccccc1)c1ccccc1)C(=O)N[C@H](C=O)CC(C)C | 50 nM | –
CC(C)C[C@H](CC(=O)C1c2ccccc2Oc2ccccc21)C(=O)NC(Cc1ccccc1)C(=O)CF (stereo partly specified) | – | 76000 M⁻¹ s⁻¹
